This note sets out measurements from US10301629B2, “Structure, manufacturing and uses of human-derived cell-permeable peptides conjugated with specific biologically active cargo peptides” (priority 2013, dated 2019).

For the test, the system named is cytokine response to LPS. As to the kind of experiment: Mouse endotoxin (LPS) challenge, peptide pretreatment 30 minutes prior, plasma cytokines. To be noted: peptide 500 micrograms per mouse, dexamethasone 3 mg/kg, PPL-002 p<0.01.

Method: The ability of peptide pretreatment to inhibit the inflammatory cytokine response or stimulate the anti-inflammatory cytokine response to LPS was determined 2 hours after LPS injection (FIG. 10).
Peptides were dosed both i.p. and i.v. at 500 micrograms per mouse (10 mg/kg) 30 minutes prior to challenge by injection of endotoxin (LPS) at a dose of 50 micrograms/kg.

As for `C[C@@H]1C[C@H]2[C@@H]3CCC4=CC(=O)C=C[C@]4(C)[C@@]3(F)[C@@H](O)C[C@]2(C)[C@@]1(O)C(=O)CO` [Dexamethasone, dexamethasone, reference compound], the “IL-10 level after LPS challenge, i.p. pretreatment” value is given as “no effect”.
